These results are taken from US6313090A, “Methods for treating parasitic infection using thiopeptides” (The United States of America as represented by the …, priority 2000, dated 2001).

By IC50 is commonly meant the concentration needed to halve the response being measured. Low values mean higher potency, high ones lower potency.

A value given as a limit tells only on which side of the number the result lay.

For one test, the system named is C. parvum GCH1 oocysts. Put plainly: Intact C. parvum oocyst assay on MDBKF5D2 cell monolayers, immunofluorescence. The class given is cell-based. The method, then: In vitro doses of drugs. Thiostrepton (Calbiochem) was dissolved in sterile complete Dulbecco's Modified Eagle Medium (DMEM) supplemented with dimethyl sulfoxide (DMSO) at 0.2% and tested at concentrations of 800, 400, 200, and 100, 10, 1 and 0.1 μg/ml.
(§1) Intact C. parvum oocyst asset 3.0×10^4 C. parvum GCH1 oocysts per well were incubated in the above-mentioned concentrations of drug at 37° C. (8% CO2) on confluent MDBKF5D2 cell monolayers in 96 well microtiter plates. The level of infection in each well was determined and analyzed by immunofluorescence assay at 48 hours, using C. parvum sporozoite rabbit anti-serum (0.1%) and fluorescein-conjugated goat anti-rabbit antibody (1.0%). Percent inhibition was calculated by subtracting the mean parasite/drug from the mean parasitelmedium, divided by the mean parasite/medium, all of which was multiplied by 100. The analysis was performed using MCID and an inverted microscope.
In vitro doses of drugs. Thiostrepton (Calbiochem) and Phavic (NTZ) were dissolved in sterile complete Dulbecco's Modified Eagle Medium (DMEM) supplemented with dimethyl sulfoxide (DMSO) at 0.2% and tested at concentrations of 800, 400, 200, and 100 μg/ml. NTZ was tested at concentrations of 100, 10, 1 and 0.1 μg/ml. Paromomycin (Sigma) was dissolved in DMEM and tested at concentrations of 2000, 1000, 500 and 250 μg/ml.
as §1, with “assay .” for “asset”, “plates. For some monolayers, the oocysts were incubated in DMEM on the cell monolayers for four hours, at which time the monolayers were washed and then drug was added to the wells.” for “plates.”, “parasite/medium,” for “parasitelmedium,”
In vitro doses of drugs. Thiostrepton (Calbiochem), Phavic (NTZ) were dissolved in sterile complete Dulbecco's Modified Eagle Medium (DMEM) supplemented with dimethyl sulfoxide (DMSO) at 0.2%. Thiostrepton was tested at a concentration of 800 μg/ml. NTZ was tested at a concentration of 10 μg/ml. Paromomycin was dissolved in DMEM and tested at 2000 μg/ml. Cell monolayers were infected and washed, followed by the addition of drug at time intervals of 0, 2, 4, 8 and 24 hours.
as §1, with “assay.” for “asset”, “analyze” for “analyzed”, “parasite/medium,” for “parasitelmedium,”

The subject of test [1] is P. falciparum (strain 3D7). To be noted: concentration used, near the IC99 value; cited from earlier work.
In test [2] the test system is rpoB/C mRNA encoded by the 35-kb plastid-like organelle genome. In kind it is cell-based, P. falciparum. To be noted: thiostrepton at 8 μM, rifampin at 80 μM. The method, then:
As of organelle and cyloplasmic transcript levels. RNA polymerase transcript levels were assessed by comparing the amounts of RNA synthesized at timepoints following drug treatment. Cultures of P. falciparum (3.2% parasitemia, 5% hematocrit) were treated with thiostrepton at 8 μM and rifampin (Sigma) at 80 μM; near the IC99 values (this study and ref. 22). Aliquots (5 ml) of treated and control cultures were removed and immediately processed for RNA with a guanidinium thiocyanate solution, according to the manufacturer's directions (RNAgents, Promega). All RNA samples were dissolved in 50 μl DEPC-treated water, DNase I treated as previously described (23) and an aliquot (1 μl) was removed for RT-PCR First strand synthesis of cDNA was completed with a random hexamer (Superscript Preamplification System, Life Technologies). One-tenth of the CDNA product was utilized for PCR of rpoB/C, MSA1, and rRNA. Primers corresponding to the 3' region of rpoB, 5'-GGGCTTTAGAAGCTTTTGG-3' (SEQ ID NO:1), and the 5' region of rpoC, 5'-[…]-3' (SEQ ID NO:2) were applied as described (2,3) for PCR of nascent rpoB/C transcripts. Reactions were cycled with the following parameters: 94° C./30 seconds, 42° C./30 seconds, 72° C./60 seconds, 35 cycles. Primers for amplification of nucleotide 64 to 614 of MSA1 with 5'-GTGTGATAATATTCATGG-3' (SEQ ID NO:3) and 5'-GGAGAGCATTTGGTG-3' (SEQ ID NO:4)(24) and the small subunit rRNA with oligonucleotides 841 and 844 (23) were used for amplification reactions following the parameters in the respective references except with 35 cycles. Samples were also analyzed after 25 cycles of amplification to ensure detection in the linear range of the amplification reaction, with similar results. Following electrophoresis of aliquots from the amplification reactions on 1% agarose:TBE gels, samples were transferred to nylon membranes (GeneScreen Plus, DuPont) and hybridized as described (25). The amplification products were probed with 5'-^32 P-labeled oligonucleotides. The rpoB/C products were probed with 5'-[…]-3' (SEQ ID NO:5) (nucleotide 2009-2030 of rpoB) and 5'-CGGAGAGGTATTAATACC-3' (SEQ ED NO:6) (nucleotide 108-125 of rpoC), in 5×SSC, 10 mM sodium phosphate, 0.05% sodium pyrophosphate, 1% sodium dodecyl sulfate, 5×Denhardt's solution, 100 μg/ml yeast tRNA, 42° C. and washed in the hybridization solution lacking Denhardt's and tRNA at 37° C., three times. The final wash was 1×SSC, 0.5% sodium dodecyl sulfate, 42° C. followed by autoradiography. The same results were obtained with either probe. The MSA1 amplification products were similarly probed with 5'-[…]-3' (SEQ ID NO:7) and the rRNA products with oligonucleotide 842 (23).
The target of inhibition by thiostrepton. […]

Test [3] deals with P. falciparum (strain 3D7). Put plainly: Assay of growth inhibition, [3H]hypoxanthine incorporation. The class given is cell-based. To be noted: in vitro culture; [3H]hypoxanthine uptake and incorporation. The method, then: Assay of Growth inhibition. Thiostrepton (1525 u/mg; Calbiochem) and anisomycin (Sigma) were dissolved at 100 mM in DMSO (Pierce). P. falciparum (strain 3D7) (44) was maintained in culture with human erythrocytes (5% hematocrit) in RPMI-1640 (Life Technologies) supplemented with HEPES and sodium bicarbonate and human sera (10%) under standard conditions (18,19). The growth inhibition assay was conducted as described (20). Briefly, the parasitemia was adjusted to 0.1% parasitemia, 2.5% hematocrit and 200 μl aliquots placed in wells of a microtitre dish. Serial dilutions of drugs were made in RPMI. Thiostrepton was diluted to 10 mM in DMSO before the serial dilutions in RPMI. Aliquots (20 μl) were added in triplicate to the cultures in the microtitre plate, mixing well. At the highest concentrations (final 0.2mM), thiostrepton precipitates. After incubation for 48 hours under standard conditions, [2,8-^3 H]-hypoxanthine Moravek Biochemicals, 12.5 Ci/mmol) in RPMI (20 μl, 0.05 mCi/ml) was added to each well. After incubation for a further 24 hours, the cultures were lysed and incorporated radioactivity was measured with an automated counter.
Assay of inhibition. The effect of thiostrepton on growth and protein synthesis of P. falciparum was compared to anisomycin, since the effect of both of these drugs is on protein synthesis. To assay the effect of thiostrepton and anisomycin on the growth of P. faciparum, inhibition of the uptake and incorporation of [^3 H]hypoxanthine was quantitated at serial dilutions of the drugs on an in vitro culture of P. falciparum. […] Inhibition of the incorporation of [^3 H]leucine was also tested at the same dilutions of the drugs. For anisomycin, total protein synthesis was inhibited 50% at the IC50 (0.511 μM) for inhibition of growth, with the concentration-response almost superimposable on that of protein synthesis. […] This would occur if organelle protein synthesis was the target of inhibition (29,30).

The mark [4] stands for this setting: Table 4 Washed at 4 hours, 1 μg/ml.
Where [5] appears, read: Table 4 Washed at 4 hours, 10 μg/ml.
Setting [6] is: Table 4 Washed at 4 hours, .1 μg/ml.
The mark [7] stands for this setting: Table 5, 10 μg/ml, drug added at 0 hrs.
[8] abbreviates: Table 5, 10 μg/ml, drug added at 2 hrs.
[9] abbreviates: Table 5, 10 μg/ml, drug added at 4 hrs.
Where [10] appears, read: Table 5, 10 μg/ml, drug added at 8 hrs.
Setting [11] is: Table 5, 10 μg/ml, drug added at 24 hrs.

For `CC(=O)Oc1ccccc1C(=O)Nc1ncc([N+](=O)[O-])s1` [NTZ], the “Inhibition Percent” value is reported as 43.60% in the test on C. parvum GCH1 oocysts (Table 3 Unwashed, 1 μg/ml); 92.91% in the test with C. parvum GCH1 oocysts (Table 3 Unwashed, 10 μg/ml); 10.31% in the test on C. parvum GCH1 oocysts (Table 3 Unwashed, .1 μg/ml); 83.27% with C. parvum GCH1 oocysts (setting [4]); 93.12% in the test on C. parvum GCH1 oocysts (setting [5]); 4.42% in the test with C. parvum GCH1 oocysts (setting [6]). Moreover, the “Inhibition Percent” value with C. parvum GCH1 oocysts (setting [7]) is on record as 91.12%; in the test with C. parvum GCH1 oocysts (setting [8]), 95.76%; in the test on C. parvum GCH1 oocysts (setting [9]) it was 91.18%; in the test with C. parvum GCH1 oocysts (setting [10]), 86.01%; in the test on C. parvum GCH1 oocysts (setting [11]) it was 60.60%. The “Inhibition Score” value is 1 (1: 31-55%) in the test with C. parvum GCH1 oocysts (Table 3 Unwashed, 1 μg/ml); 4 (4: 91-100%) with C. parvum GCH1 oocysts (Table 3 Unwashed, 10 μg/ml); 0 (0: 0-30%) in the test on C. parvum GCH1 oocysts (Table 3 Unwashed, .1 μg/ml); 3 (3: 71-90%) in the test with C. parvum GCH1 oocysts (setting [4]); 4 (4: 91-100%) in the test with C. parvum GCH1 oocysts (setting [5]); 0 (0: 0-30%) in the test with C. parvum GCH1 oocysts (setting [6]). Besides, the “Inhibition Score” value in the test with C. parvum GCH1 oocysts (setting [7]) is 4 (4: 91-100%); with C. parvum GCH1 oocysts (setting [8]) it was 4 (4: 91-100%); in the test on C. parvum GCH1 oocysts (setting [9]) it was 4 (4: 91-100%); in the test on C. parvum GCH1 oocysts (setting [10]) it was 3 (3: 71-90%); with C. parvum GCH1 oocysts (setting [11]), 2 (2: 56-70%). Besides, the “Parasite Count” value in the test with C. parvum GCH1 oocysts (Table 3 Unwashed, 1 μg/ml) was 694.75; in the test on C. parvum GCH1 oocysts (Table 3 Unwashed, 10 μg/ml), 87.31; with C. parvum GCH1 oocysts (Table 3 Unwashed, .1 μg/ml) it was 1104.81; in the test with C. parvum GCH1 oocysts (setting [4]), 233.44; in the test with C. parvum GCH1 oocysts (setting [5]), 96.06; with C. parvum GCH1 oocysts (setting [6]), 1334.06. Moreover, the “Parasite Count” value is 113.06 in the test on C. parvum GCH1 oocysts (setting [7]); 53.94 in the test on C. parvum GCH1 oocysts (setting [8]); 112.31 in the test on C. parvum GCH1 oocysts (setting [9]); 178.13 in the test with C. parvum GCH1 oocysts (setting [10]); 501.63 in the test with C. parvum GCH1 oocysts (setting [11]). The “activity when drug is added 24 hours after infection” value in the test on C. parvum GCH1 oocysts (intracellular stages only) is on record as “still highly inhibitory”.
For `CO[C@H]1/C=C/O[C@@]2(C)Oc3c(C)c(O)c4c(O)c(c(/C=N/N5CCN(C)CC5)c(O)c4c3C2=O)NC(=O)/C(C)=C\C=C\[C@H](C)[C@H](O)[C@@H](C)[C@@H](O)[C@@H](C)[C@H](OC(C)=O)[C@@H]1C` [rifampin], in test [1], the “IC99 (near)” value is approximately 80 µM. Further, the “decay of mRNA corresponding to rpoB/C, time of drug treatment” value in test [2] was not above 6 h.
In test [3], `COc1ccc(C[C@H]2NC[C@H](O)[C@H]2OC(C)=O)cc1` [anisomycin] yielded an IC50 of 500 nM.
